Source: publication PMC6753678, “Fueling Open Innovation for Malaria Transmission-Blocking Drugs: Hundreds of Molecules Targeting Early Parasite Mosquito Stages” (Frontiers in Microbiology, 2019)
Where two headings read alike, the source gives them in different places.

How the values were obtained:
[1] = tested on: 3D7-strain P. falciparum asexual parasites; assay: P. falciparum asexual growth inhibition assay (Pf GIA); format: cell-based, Plasmodium falciparum; conditions: dose response confirmation; read-out: Pf asexual growth inhibition assays IC50
How it was run: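 0.25% parasitemia, 2% Hct, RPMI/HEPES/hypoxanthine/5% Albumax; compound dose response, 72 h, 37°C, 5% CO2, 5% O2, 90% N2. Freeze-thaw, then LDH assay, A650. % inhibition vs chloroquine (50 μM)/DMSO, mean of 3 independent runs.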

HepG2 cells = assay: HepG2 cytotoxicity assay; conditions: for IC50: read-out: HepG2 cytotoxicity assay IC50, dose response confirmation; for Pb ODA (this manuscript) HepG2 cytoxicity: HepG2 cytotoxicity listed with the Pb ODA data set (this manuscript)
How it was run: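 Cells at 2,500 per well in MEM with 10% fetal bovine serum and 1% NEAA were exposed to test compounds for 48 h at 37°C, 5% CO2. Viability was read by fluorescence, with percent inhibition calculated against 50 μM doxorubicin (positive) and DMSO (negative) controls.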

[2] = tested on: P. berghei ookinete development; conditions: for % inhibition, Replicate A / % inhibition, Replicate B: primary screen at 1 μM
[3] = HepG2 values of the three screens unified
[4] = read-out: Pb ODA IC50, this manuscript
[5] = read-out: Pb Ookinete development assay IC50, dose response confirmation
[6] = unified HepG2 value across the three screens
[7] = read-out: Pb ODA (this manuscript) IC50, P. berghei ookinete development assay, this manuscript

| SMILES | IC50 [1] | Unified cytotox (HepG2 cells; [3]) | IC50 (HepG2 cells) | Is compound selective in assay? Pb ODA active? ([2]; 1: YES, 0: NO) | % inhibition, Replicate A [2] | % inhibition, Replicate B [2] | IC50 [2, 4] | IC50 [2, 5] | Unified cytotox (HepG2 cells; [6]) | Pb ODA (this manuscript) HepG2 cytoxicity (HepG2 cells) | Is compound selective in assay? Pb ODA active? [2] | IC50 [2, 7] | HepG2 cytoxicity (Pb ODA, this manuscript) (HepG2 cells) |
| --- | --- | --- | --- | --- | --- | --- | --- | --- | --- | --- | --- | --- | --- |
| Cc1[nH]c(C)c(-c2ccc(-c3ccc(OC(F)(F)F)cc3)nc2)c(=O)c1Br [TCMDC-136016] | 326 nM | 100.00 µM | 100000 nM | 1 (1: YES) | 59.20% | 74.30% | 450 nM | 446 nM | – | – | – | – | – |
| Cc1[nH]c(C)c(-c2csc3ccccc23)c(=O)c1Cl [TCMDC-136017] | 2260 nM | – | 100000 nM | 1 (1: YES) | 37.82% | 76.50% | 1840 nM | 1840 nM | 100.00 µM | – | – | – | – |
| Cc1noc(C)c1-c1ccc2c(Nc3ccc(C(F)(F)F)cc3)c(C(N)=O)cnc2c1.Cl [TCMDC-136019] | 365 nM | – | 49000 nM | – | 61.84% | 39.20% | – | 5460 nM | – | 48.98 µM | 0 (key: 1: YES; 0: NO) | 5460 nM | – |
| Cc1nc2c(c([O-])c1Cl)-c1ccc(Oc3cccc(C(F)(F)F)c3)cc1C2=O.[Na+] [TCMDC-136021] | 54 nM | – | 39800 nM | 1 (1: YES) | 94.15% | 74.80% | 780 nM | 785 nM | 39.81 µM | – | – | – | – |
| Cc1noc(C)c1-c1ccc2c(Nc3ccc(C#N)cc3)c(C(N)=O)cnc2c1 [TCMDC-136029] | 609 nM | – | 69200 nM | – | 61.24% | 98.78% | – | 3830 nM | – | 69.18 µM | 1 (key: 1: YES; 0: NO) | 3830 nM | – |
| Cc1[nH]c(C)c(-c2ccc(CCc3ccc(C(F)(F)F)cc3)nc2)c(=O)c1Cl [TCMDC-136051] | 52 nM | 56.89 µM | 56900 nM | 1 (1: YES) | 100.56% | 100.86% | 140 nM | 144 nM | – | – | – | – | 56.89 µM |
| CC(=O)c1ccc(Nc2c(C(N)=O)cnc3cc(-c4c(C)noc4C)ccc23)cc1 [TCMDC-136058] | 1350 nM | – | 100000 nM | – | 86.92% | 80.92% | – | 3200 nM | – | 100.00 µM | 1 (key: 1: YES; 0: NO) | 3200 nM | – |
| Cc1[nH]c(C)c(-c2ccc(-c3ccc(OC(F)(F)F)cc3)cc2)c(=O)c1Cl [TCMDC-136060] | 77 nM | 64.57 µM | 64600 nM | 1 (1: YES) | 87.72% | 84.45% | 53.8 nM | 54 nM | – | – | – | – | 64.57 µM |
| COc1ccc(Oc2ccc(-c3c(C)[nH]c(C)c(Cl)c3=O)cc2)cc1 [TCMDC-136134] | 7.4 nM | 100.00 µM | 100000 nM | 1 (1: YES) | 121.16% | 100.57% | 420 nM | 422 nM | – | – | – | – | – |
| Cc1[nH]c(C)c(-c2ccc(-c3ccccc3Cl)nc2)c(=O)c1Br [TCMDC-136157] | 48 nM | 0.14 µM | 140 nM | 0 (0: NO) | 96.17% | 90.55% | 430 nM | 432 nM | – | – | – | – | 0.14 µM |
| Cc1[nH]c(C)c(-c2ccc(-c3ccc(Cl)cc3)nc2)c(=O)c1Br [TCMDC-136159] | 625 nM | 100.00 µM | 100000 nM | 1 (1: YES) | 98.54% | 60.48% | – | 940 nM | – | – | – | – | – |
| Cc1[nH]c(C)c(-c2ccc(-c3cccc(Cl)c3)nc2)c(=O)c1Br [TCMDC-136160] | 251 nM | 100.00 µM | 100000 nM | 1 (1: YES) | 97.52% | 67.64% | 2090 nM | 2090 nM | – | – | – | – | – |
| Cc1[nH]c(C)c(-c2ccc(-c3ccc4c(c3)OCO4)nc2)c(=O)c1Br [TCMDC-136161] | 646 nM | 100.00 µM | 100000 nM | 1 (1: YES) | 101.58% | 91.12% | 1430 nM | 1430 nM | – | – | – | – | – |
| CCCCN(C)CC#Cc1ccc2[nH]c(C)c(Cl)c(=O)c2c1 [TCMDC-136185] | 49 nM | – | 3090 nM | 1 (1: YES) | 106.94% | 101.22% | 210 nM | 207 nM | 3.09 µM | – | – | – | – |
| Cc1[nH]c2ccc(-c3ccc(N(C)C)cc3)cc2c(=O)c1Cl [TCMDC-136188] | 227 nM | – | 100000 nM | 1 (1: YES) | 79.29% | 60.77% | 550 nM | 547 nM | 100.00 µM | – | – | – | – |
| Cc1[nH]cc(Br)c(=O)c1-c1ccc(Oc2ccccc2)cc1 [TCMDC-136196] | 422 nM | 100.00 µM | 100000 nM | 1 (1: YES) | 91.11% | 82.53% | 370 nM | 369 nM | – | – | – | – | – |
| COc1ccc2ncc(F)c(CCN3CC[C@H](NCc4cc(C#N)c5c(c4)OCCO5)[C@H](O)C3)c2c1 [TCMDC-136207] | 795 nM | – | 38000 nM | 1 (1: YES) | 67.99% | 58.62% | 750 nM | 747 nM | 38.02 µM | – | – | – | – |
| COc1ccc2ncc(F)c(CCN3CCC(NCc4cc(C)c5c(c4)OCCO5)CC3)c2n1.Cl [TCMDC-136209] | 449 nM | – | 21400 nM | – | 56.92% | 30.84% | – | 1740 nM | – | 21.38 µM | 1 (key: 1: YES; 0: NO) | 1740 nM | – |
| COc1ccc2ncc(F)c(CCN3CCC(NCc4cc(Br)c5c(c4)OCCO5)CC3)c2n1.Cl [TCMDC-136211] | 239 nM | – | 14400 nM | – | 36.10% | 50.60% | – | 3400 nM | – | 14.45 µM | 0 (key: 1: YES; 0: NO) | 3390 nM | – |
